The record followed here is ChEMBL document CHEMBL1133334, “Synthesis and pharmacology of new enantiopure delta(3)-4-arylkainoids” (Bioorg Med Chem Lett, 2000).

Molecules are shown by their SMILES.

The target in the assay is Glutamate NMDA receptor. Briefly: Compound was tested for agonistic activity at the N-methyl-D-aspartate glutamate receptor obtained from the rat cortical wedge preparation. The class given is functional. Conditions: read-out: KD app.
With `O=C(O)CC1=C(c2ccccc2)CN[C@@H]1C(=O)O`, the Kd is 560 µM.
On to `O=C(O)CC1=C(c2ccoc2)CN[C@@H]1C(=O)O`, for which the Kd is 85 µM.
For `O=C(O)CC1=C(c2cccs2)CN[C@@H]1C(=O)O` the value was 20 µM.
Then `COc1ccccc1C1=C(CC(=O)O)[C@@H](C(=O)O)NC1`, with 380 µM; and `O=C(O)CC1=C(c2ccsc2)CN[C@@H]1C(=O)O`, with 45 µM; and `O=C(O)CC1=C(c2ccc3ccccc3c2)CN[C@@H]1C(=O)O`, with 250 µM.
Then `O=C(O)CC1=C(c2ccco2)CN[C@@H]1C(=O)O`, with 70 µM.
